In data set [1] the test system is female F344 rats. As to the kind of experiment: Effect on fracture healing. As to conditions: orally once per day, six days a week, 39 days. The class given is in vivo, rat. On the procedure:
12 week-old female F344 rats were purchased from Charles River Laboratories and used in the following experiment. An operation for fracturing bone was performed following a method of Li et al. (J. Bone Miner. Res 1999, 14: 969-979) under ketamine xylazine anesthesia. From the next day of the operation, 0.5% carboxymethyl cellulose sodium salt solution (Wako Pure Chemical Industries, Ltd. Cat. No. 039-01335) in which a test compound was suspended was orally administered once per day and six days a week. 39 days after the administration started, the animals were painlessly killed by removing the whole blood from the aorta abdominalis under ketamine xylazine anesthesia and the femurs were extracted.
After soft tissue was removed from the extracted femurs, they were measured by bone strength measuring apparatus MZ-500D (Maruto Instrument Co., Ltd.). 3-point bending tests were performed and determined by maximum load.

For data set [2], the system named is female F344 rats. As to the kind of experiment: Effect on bone mineral density (ovariectomy). Type of data set: in vivo, rat. The following applies: 10 mg/kg, orally once per day, six days a week, six weeks. On the procedure: 8 week-old female F344 rats were purchased from Charles River Laboratories and used in the following experiment. After ketamine (12.5 mg/ml)/xylazine (2.5 mg/ml) liquid mixture was intraperitoneally injected in an amount of 0.25 ml/100 g for anesthesia, ovariectomy or a sham operation was performed. From the next day of the operation, 0.5% carboxymethyl cellulose sodium salt solution (Wako Pure Chemical Industries, Ltd. Cat. No.039-01335) in which a test compound was suspended was orally administered once per day and six days a week. Six weeks after the administration started, the animals were painlessly killed by removing the whole blood from the aorta abdominalis under ketamine xylazine anesthesia and the right and left femurs were extracted.
After soft tissue was removed from the extracted femurs, the bone density was measured by DXA device DCS-600R (Aloka Co., Ltd.). The bone density was determined for the whole femur as well as three evenly divided parts, i.e., proximal, midshaft and distal end.

The subject of data set [3] is cells from femurs and tibias of ICR mice. As to the kind of experiment: Osteoclast formation suppression test (TRAP activity). As to conditions: 20 nM active form vitamin D3; compounds 0.01-0.3 μg/ml; culturing for five days. Type of data set: cell-based, mouse. The method, then:
18 day-old ICR mice were purchased from Japan SLC, Inc. and used in the following experiments. The mice were sacrificed by cervical dislocation and the right and left femurs and tibias were extracted. After the tissue around the extracted femurs and tibias was removed, they were finely minced with scissors. 10 mL of 15%-FBS-αMEM was added to the minced femurs and tibias and the supernatant was collected after agitation for one minute and filtering with a cell strainer (Becton Dickinson company). A cell suspension containing 500,000 cells/mL was prepared with 15%-FBS-αMEM. The cell suspension was dispensed to the wells of a 96 well microplate (Falcon company) in an amount of 100 μL per well so as to achieve 50,000 cells/well and cultured for 24 hours. Active form vitamin D3 (Sigma company, Cat.No.D1530) was dispensed to the wells in final concentrations of 20 nM. Compounds were dispensed to the wells in final concentrations of 0.01, 0.03, 0.1, 0.3 μg/ml except the following control group. DMSO was dispensed to the wells of the control group in a final concentration of 0.1% (v/v). Tartrate-resistant acid phosphatase (TRAP) activity was measured for each group after culturing for five days.
The measurement of TRAP activity was performed as follows. That is, after the whole medium was removed from each well of the culturing plate, each well was washed twice by dispensing and removing 100 μL of Dulbecco's phosphate buffer (available from GIBCO BRL Cat. No. 14190-144). After retaining with a mixture of acetone-ethanol (1:1) for one minute, the retention liquid was removed and the wells were stained at 37° C. with Leukocyte acid phosphatase kit (Sigma company, Cat. No. 387-A) for 30 minutes. The staining solution was removed, then 100 μL of 10% sodium dodecylsulfate (Wako Pure Chemical Industries, Ltd. Cat. No. 191-07145) was dispensed and the mixture was stirred for five minutes, and then absorbance was measured using a microplate reader (Bio-rad company). TRAP activity decrease rate (%) in the group blended with test compounds was calculated assuming the observed value of the control group of each plate to be 100% and evaluated as the osteoclast formation suppression activity.

In another data set the test system is ST2 cells. In words: Osteoblast differentiation test (alkaline phosphatase activity). The following applies: Mus musculus, ST-2, 96 h; at 0.03 μg/mL; culturing for four days; control group (0.1% DMSO) = 100%; read-out: alkaline phosphatase activity increase rate. The class given is cell-based. The method, then:
ST2 cells (available from Institute of Physical and Chemical Research) which are stroma cells derived from mouse marrow were used. In this test, α-MEM medium (available from GIBCO BRL Cat. No. 10370-021) with which 10% (v/v) inactivated fetal bovine serum (available from Hyclone Company, FBS) and 1% (v/v) Penicillin-Streptomycin, Liquid (available from GIBCO BRL Cat. No. 15140-122) are mixed (hereinbelow abbreviated as 10% -FBS-αMEM) was used. Every culture in this test was conducted in a CO2 incubator (37° C., 95% humidity, 5% CO2).
The cells mentioned above were harvested with 2 mL of 0.25% trypsin solution (available from GIBCO BRL Cat. No. 15050-065) and after they were dispersed by adding 10 mL of 10% -FBS-αMEM, the cells were collected by centrifugal separation (25° C., 800 rpm, 5 minutes). A cell suspension containing 40,000 cells/mL was prepared from the collected cells using 10% -FBS-αMEM.
The cell suspension was dispensed to the wells of a 96 well microplate (Falcon company) in an amount of 100 μL per well so as to achieve 4,000 cells/well and cultured for 24 hours. Compounds were dispensed to the wells in final concentrations of 0.01, 0.03, 0.1, 0.3 μg/ml except the following control group. DMSO was dispensed to the wells of the control group in a final concentration of 0.1% (v/v). Alkaline phosphatase (ALP) activity was measured for each group after culturing for four days.
The measurement of ALP activity was performed as follows. That is, after the whole medium was removed from each well of the culturing plate, each well was washed twice by dispensing and removing 100 μL of Dulbecco's phosphate buffer (available from GIBCO BRL Cat. No. 14190-144). Cell lysing solution containing 10 mM MgCl2 and 2%(v/v) TritonX-100 (Sigma company) was prepared and 50 μL/well of the cell lysing solution was dispensed and the mixture was stirred at room temperature for five minutes. An ALP substrate solution containing 50 mM of diethanolamine (Wako Pure Chemical Industries, Ltd. Cat. No. 099-03112) and 20 mM of […] (Wako Pure Chemical Industries, Ltd. Cat. No. 147-02343) was prepared and 50 μL/well of the ALP substrate solution was dispensed and after allowing to stand at room temperature for 10 minutes, absorbance was measured using a microplate reader (Bio-rad company). Alkaline phosphatase activity increase rate (%) in the group blended with test compounds was calculated assuming the observed value of the control group of each plate to be 100% and evaluated as the osteoblast differentiation promoting activity.

This is an account of results in patent publication US20070219234A1, “Thienopyridine Derivatives” (priority 2004, published 2007).

In the case of `NC(=O)c1sc2nccc(N3CCCN(c4ccccc4)CC3)c2c1N` [Example 57, 3-amino-4-(4-phenyl-1,4-diazepan-1-yl)thieno[2,3-b]pyridine-2-carboxamide], the “fracture healing (3-point bending test, maximum load)” value with female F344 rats [1] was “significantly improved fracture healing”. Further, in the data set with female F344 rats [2], the “bone density of femur (DXA)” value is given as “significantly increased the bone density”. Moreover, the “osteoclast formation suppression effect (TRAP activity decrease rate)” value in data set [3] is “excellent osteoclast formation suppression effect”. The activity at 0.03 µg/mL with ST2 cells is over 150%.

Take `Cc1cccc(N2CCCN(c3ccnc4sc(C(N)=O)c(N)c34)CC2)c1` [Example 65, 3-amino-4-[4-(3-toluyl)-1,4-diazepan-1-yl]thieno[2,3-b]pyridine-2-carboxamide]: the melting point was 209 to 212 °C. Further, in data set [3], the “osteoclast formation suppression effect (TRAP activity decrease rate)” value is listed as “excellent osteoclast formation suppression effect”. The activity at 0.03 µg/mL in the data set on ST2 cells is over 150%.

Consider `C[S+]([O-])c1ccc(N2CCCN(c3ccnc4sc(C(N)=O)c(N)c34)CC2)cc1` (stereo not shown) [Example 66, 3-amino-4-{4-[4-(methylsulfinyl)phenyl]-1,4-diazepan-1-yl}thieno[2,3-b]pyridine-2-carboxamide], for which the melting point is 153 to 157 °C. For the same compound, the “osteoclast formation suppression effect (TRAP activity decrease rate)” value in data set [3] is “excellent osteoclast formation suppression effect”. In the data set on ST2 cells, the activity at 0.03 µg/mL was over 150%.

`NC(=O)c1sc2nccc(N3CCCN(c4ccc5c(c4)OCCO5)CC3)c2c1N` [Example 72, 3-amino-4-[4-(2,3-dihydro-1,4-benzodioxin-6-yl)-1,4-diazepan-1-yl]thieno[2,3-b]pyridine-2-carboxamide] registered a melting point of 104 to 107 °C. Moreover, the “osteoclast formation suppression effect (TRAP activity decrease rate)” value in data set [3] was “excellent osteoclast formation suppression effect”. Further, the activity at 0.03 µg/mL with ST2 cells is over 150%.

In the case of `CCOc1ccc(N2CCCN(c3ccnc4sc(C(N)=O)c(N)c34)CC2)cc1` [Example 83, 3-amino-4-[4-(4-ethoxyphenyl)-1,4-diazepan-1-yl]thieno[2,3-b]pyridine-2-carboxamide], the melting point was 181 to 183 °C. Besides, the “osteoclast formation suppression effect (TRAP activity decrease rate)” value in data set [3] is recorded as “excellent osteoclast formation suppression effect”. In the data set with ST2 cells, the activity at 0.03 µg/mL was over 150%.

For the compound `CC(=O)c1ccc(N2CCCN(c3ccnc4sc(C(N)=O)c(N)c34)CC2)cc1` [Example 94, 4-[4-(4-acetylphenyl)-1,4-diazepan-1-yl]-3-aminothieno [2,3-b]pyridine-2-carboxamide], the melting point is 279 to 282 °C (dec.). Besides, the “osteoclast formation suppression effect (TRAP activity decrease rate)” value in data set [3] was “excellent osteoclast formation suppression effect”. The activity at 0.03 µg/mL with ST2 cells was over 150%.

Regarding `NC(=O)c1sc2nccc(N3CCCN(c4nccs4)CC3)c2c1N` [Example 97, 3-amino-4-[4-(1,3-thiazol-2-yl)-1,4-diazepan-1-yl]thieno[2,3-b]pyridine-2-carboxamide], the melting point lay within 243 to 245 °C. In data set [3], the “osteoclast formation suppression effect (TRAP activity decrease rate)” value is “excellent osteoclast formation suppression effect”. Moreover, the activity at 0.03 µg/mL with ST2 cells is over 150%.

On to `NC(=O)c1sc2nccc(N3CCCN(c4ccccn4)CC3)c2c1N` [Example 99, 3-amino-4-(4-pyridin-2-yl-1,4-diazepan-1-yl)thieno[2,3-b]pyridine-2-carboxamide], for which the melting point fell in the range of 237 to 239 °C. In addition, the “osteoclast formation suppression effect (TRAP activity decrease rate)” value in data set [3] is “excellent osteoclast formation suppression effect”. The activity at 0.03 µg/mL in the data set with ST2 cells was over 150%.

The compound `COCC1CCCN(c2ccnc3sc(C(N)=O)c(N)c23)C1` (stereo not shown) [Example 101, 3-amino-4-[3-(methoxymethyl)piperidin-1-yl]thieno[2,3-b]pyridine-2-carboxamide] yielded a melting point of 229 to 230 °C. Moreover, the “osteoclast formation suppression effect (TRAP activity decrease rate)” value in data set [3] is recorded as “excellent osteoclast formation suppression effect”. Besides, the activity at 0.03 µg/mL in the data set on ST2 cells was over 150%.

As for `Cc1ccc(N2CCCN(c3ccnc4sc(C(N)=O)c(N)c34)CC2)nc1` [Example 106, 3-amino-4-[4-(5-methylpyridin-2-yl)-1,4-diazepan-1-yl]thieno[2,3-b]pyridine-2-carboxamide], the melting point lay within 205 to 208 °C. The “osteoclast formation suppression effect (TRAP activity decrease rate)” value in data set [3] was “excellent osteoclast formation suppression effect”. Further, in the data set with ST2 cells, the activity at 0.03 µg/mL is over 150%.
